According to US20240287124A1, “PRODRUGS OF 4'-SUBSTITUTED NUCLEOSIDE REVERSE TRANSCRIPTASE INHIBITORS” (Merck Sharp & Dohme LLC, priority 2023, published 2024):
Converted amounts (≈) assume the structure as drawn.

Legend:
[1] = Aqueous solubility in PBS, pH 7.4; assay type: physicochemical; details: phosphate buffered saline, pH 7.4, aqueous buffer, thermodynamic from solid, pH 7.4 phosphate buffered saline, 24 hours, amorphous or crystalline material; read-out: Aqu. Solubility
Method: Aqueous solubility of the compounds was determined by suspending excess solid (typically 0.3-0.5 mg) in PBS, pH 7.4, at a concentration of 0.5 mg/mL. The suspension was vortexed for 10-30 seconds to wet the material and stirred at 600 rpm for 24 hours. For analysis by UPLC, 150 μL aliquot sample was transferred into a […] PVDF spin filter and centrifuged at 14,000 rpm for 5 minutes. 100 μL of the filtrate was diluted with 100 μL 1:1 Acetonitrile (ACN):H2O. The resultant samples were analyzed using UPLC and quantified against a standard curve of the compound of interest dissolved in 1:1 ACN:H2O. The retains of the solids were checked by XRPD and PLM to determine if the phase of the material was crystalline or amorphous.

[2] = test system: HIV-1 wild-type (R8) virus; assay: Viral KINetics in Green cells (VIKING) assay, HIV-1 replication in MT4-GFP reporter cells; assay type: cell-based; details: Human immunodeficiency virus 1, 10% normal human serum, MT4-GFP cells, HIV-1 wild-type (R8); read-out: Viking (10% NHS), IC50
How it was run: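 Compounds in 3-fold, 10-point series (typical 4 μM-0.2 nM) in 10% normal human serum received MT4 GFP-reporter T cells pre-infected overnight with wild-type R8 virus (MOI ~0.01). Ratio of GFP-positive cells at 72 vs 48 h defined replication; IC50 from nonlinear 4-parameter dose-response fitting.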

Row | SMILES | solubility at 24 h [1] [µg/mL] | IC50 [2] [nM]
1 | C#C[C@]1(CO)O[C@@H](n2ccc3c(N)nc(Cl)nc32)C[C@@H]1OC(=O)OCCC12CC3CC(CC(C3)C1)C2 [Example 36, 2-(adamantan-1-yl)ethyl ((2R,3S,5R)-5-(4-amino-2-chloro-7H-pyrrolo[2,3-d]pyrimidin-7-yl)-2-ethynyl-2-(hydroxymethyl)tetrahydrofuran-3-yl) carbonate] | < 1 | 5.5
2 | C#C[C@]1(CO)O[C@@H](n2ccc3c(N)nc(Cl)nc32)C[C@@H]1OC(=O)OCCC [Example 80] | 305 (≈ 773 µM) | 10
3 | C#C[C@]1(COC(=O)CCCCCCCCCCCCCCC)O[C@@H](n2ccc3c(N)nc(Cl)nc32)C[C@@H]1O [Example 16, ((2R,3S,5R)-5-(4-amino-2-chloro-7H-pyrrolo[2,3-d]pyrimidin-7-yl)-2-ethynyl-3-hydroxytetrahydrofuran-2-yl)methyl palmitate] | < 1 | 5.6
4 | C#C[C@]1(COC(=O)OCCCCCCC)O[C@@H](n2ccc3c(N)nc(Cl)nc32)C[C@@H]1O [Example 121] | 7 (≈ 15.5 µM) | 3.1
5 | C#C[C@]1(CO)O[C@@H](n2ccc3c(NC(=O)CCCC)nc(Cl)nc32)C[C@@H]1O [Example 22, N-(2-chloro-7-((2R,4S,5R)-5-ethynyl-4-hydroxy-5-(hydroxymethyl)tetrahydrofuran-2-yl)-7H-pyrrolo[2,3-d]pyrimidin-4-yl)pentanamide] | 362 (≈ 921 µM) | 199
6 | C#C[C@]1(COC(=O)CCCCCCCCC)O[C@@H](n2ccc3c(N)nc(Cl)nc32)C[C@@H]1OC(C)=O [Example 48, ((2R,3S,5R)-3-acetoxy-5-(4-amino-2-chloro-7H-pyrrolo[2,3-d]pyrimidin-7-yl)-2-ethynyltetrahydrofuran-2-yl)methyl decanoate] | < 1 | 35
7 | C#C[C@]1(COC(=O)CCCCCCCCC)O[C@@H](n2ccc3c(N)nc(Cl)nc32)C[C@@H]1OC(=O)CC [Example 47, ((2R,3S,5R)-5-(4-amino-2-chloro-7H-pyrrolo[2,3-d]pyrimidin-7-yl)-2-ethynyl-3-(propionyloxy)tetrahydrofuran-2-yl)methyl decanoate] | < 1 | 34
8 | C#C[C@]1(COC(=O)OCc2oc(=O)oc2C)O[C@@H](n2ccc3c(N)nc(Cl)nc32)C[C@@H]1OC(=O)OCc1oc(=O)oc1C [Example 53, ((2R,3S,5R)-5-(4-amino-2-chloro-7H-pyrrolo[2,3-d]pyrimidin-7-yl)-2-ethynyl-3-((((5-methyl-2-oxo-1,3-dioxol-4-yl)methoxy)carbonyl)oxy)tetrahydrofuran-2-yl)methyl ((5-methyl-2-oxo-1,3-dioxol-4-yl)methyl) carbonate] | < 1 | 1.7

The next lines start with results.

Row | solubility at 24 h [1] [µg/mL] | SMILES | IC50 [2] [nM]
9 | 257 (≈ 733 µM) | C#C[C@]1(CO)O[C@@H](n2ccc3c(N)nc(Cl)nc32)C[C@@H]1OC(C)=O [Example 180] | 27
10 | < 1 | C#C[C@]1(CO)O[C@@H](n2ccc3c(N)nc(Cl)nc32)C[C@@H]1OC(=O)OCCCCC[C@@H]1SC[C@@H]2NC(=O)N[C@@H]21 [Example 160] | 11
11 | 51 (≈ 119 µM) | C#C[C@]1(CO)O[C@@H](n2ccc3c(NC(=O)Cc4ccccc4)nc(Cl)nc32)C[C@@H]1O [Example 199] | 230
12 | < 1 | C#C[C@]1(COC(=O)OCc2ccccc2)O[C@@H](n2ccc3c(N)nc(Cl)nc32)C[C@@H]1OC(=O)OCCCCCCCC [Example 213] | 7.9
13 | 124 (≈ 286 µM) | C#C[C@]1(COC(=O)CC2CCCCC2)O[C@@H](n2ccc3c(N)nc(Cl)nc32)C[C@@H]1O [Example 182] | 3.1
14 | < 1 | C#C[C@]1(CO)O[C@@H](n2ccc3c(N)nc(Cl)nc32)C[C@@H]1OC(=O)CC1CCCCC1 [Example 177] | 8.5
